According to patent US8071640B2, “Urea oligomers, their preparation process and pharmaceutical compositions containing them” (Centre National de la Recherche Scientifique, priority 2001, dated 2011):
Where two headings read alike, the source gives them in different places.

Experiments:
erythrocytes = experiment: Hemolysis test; type: cell-based, monkey (macaque); details: 100 μg per ml of suspension (positive control); macaque erythrocytes, one hour at 37° C.
Protocol: A compound acting on the membranes of bacteria can potentially disturb the membranes of mammalian cells. The red blood cells or erythrocytes serves as a model of eukaryotic cells where the degree of membrane permeation is easily evaluated by measuring the quantity of hemoglobin released through the pores of the embrittled membranes and the concentration of which is directly proportional to the optical density at 450 nm.
The erythrocytes are prepared from freshly sampled monkey blood (macaque). The heparinized blood is centrifuged and washed three times with cold PBS and resuspended at 10% (v/v) in PBS. 10 μl of an aqueous solution of the products to be tested are added to 90 μl of suspension of red blood cells. The erythrocytes are incubated for one hour at 37° C. The suspension is centrifuged in order to recover the supernatant which is more or less red depending on the degree of hemolysis. The concentration of hemoglobin released in the supernatant is measured by the optical density at 450 nm. In the negative control the red blood cells are incubated in the absence of product and show an OD of 0.100% hemolysis is obtained with 100 μg cetylpyridinium chloride per ml of suspension. The degree of hemolysis is evaluated with respect to the positive control for the different concentrations of the products tested.

E. coli D363 = type: cell-based
Protocol: (§1) The compounds tested all form part of the polyurea class and were obtained in the laboratory by chemical route. Tests for the inhibition of the growth of bacteria and fungi were carried out in liquid tests. The specific activity of each molecule is expressed by the minimal inhibitory concentration on the growth of the bacteria and/or fungi, called MIC. The MIC is a value specific to each compound and varies as a function of the organisms tested. It should be noted that the MIC values follow a logarithmic progression, which is due to a two-by-two dilution of the compounds tested in a series of tests. The molecules tested were presented in the form of salts which are soluble in water and thus the culture medium of the microorganisms.
(§2) For carrying out the tests, 96-well plates were used. Each well contains 90 μl of a suspension of bacteria diluted in PB medium (Poor Broth, Difco) in order to have a final concentration of 1 mOD. 10 μl of compound in solution in sterile water at concentrations ranging from 1 mg/ml to 2 μg/ml are added to the tests. The plates are placed under stirring at 29° C. for 24 hours. The growth of the bacteria is measured by measuring the turbidity of the culture medium and measuring the OD at 595 nm. The value of the MIC corresponds to the concentration of the substances to be tested where no growth of bacteria is noted (OD=0).

Micrococcus luteus = type: cell-based
Protocol: as §1, §2

Pseudomonas aeruginosa = type: cell-based
Protocol: as §1, §2

Salmonella cloacae = type: cell-based
Protocol: as §1, §2

Staphylococcus aureus = type: cell-based; details: 24 h
Protocol: as §1, §2

Aspergillus fumigatus = type: cell-based
Protocol: as §1, with “microorganisms. The antifungal tests are carried out in similar fashion with ½ PDB (Potato dextrose broth, Difco) as culture medium and 10,000 spores per ml of culture. An optical control under a reverse microscope is necessary in the case of the fungi in order to evaluate the formation of the mycelia of the filamentous fungi (Aspergillus fumigatus, Neurospora crassa). The CMC is determined after culture for 48 hours at 29° C. and corresponds to the concentration where no formation of mycelium is observed.” for “microorganisms.”

Neurospora crassa = type: cell-based
Protocol: as §1, with “microorganisms. The antifungal tests are carried out in similar fashion with ½ PDB (Potato dextrose broth, Difco) as culture medium and 10,000 spores per ml of culture. An optical control under a reverse microscope is necessary in the case of the fungi in order to evaluate the formation of the mycelia of the filamentous fungi (Aspergillus fumigatus, Neurospora crassa). The CMC is determined after culture for 48 hours at 29° C. and corresponds to the concentration where no formation of mycelium is observed.” for “microorganisms.”

Row | Molecule | hemolysis (erythrocytes) [%] | Minimum inhibitory concentration (E. coli D363; D363, 24 h) [µM] | Minimum inhibitory concentration (E. coli D363; E. coli D363, PB medium, 24 hours at 29° C.) [µg/mL] | Minimum inhibitory concentration (Micrococcus luteus; 24 h) [µM] | Minimum inhibitory concentration (Micrococcus luteus; Micrococcus luteus, PB medium, 24 hours at 29° C.) [µg/mL] | Minimum inhibitory concentration (Pseudomonas aeruginosa; 24 h) [µM] | Minimum inhibitory concentration (Pseudomonas aeruginosa; Pseudomonas aeruginosa, PB medium, 24 hours at 29° C.) [µg/mL] | Minimum inhibitory concentration (Salmonella cloacae; 24 h) [µM] | Minimum inhibitory concentration (Salmonella cloacae; Salmonella cloacae, PB medium, 24 hours at 29° C.) [µg/mL] | Minimum inhibitory concentration (Staphylococcus aureus) [µg/mL] | Minimum inhibitory concentration (Aspergillus fumigatus; 48 h) [µM] | Minimum inhibitory concentration (Aspergillus fumigatus; Aspergillus fumigatus, ½ PDB, 10,000 spores per ml, 48 hours at 29° C.) [µg/mL] | Minimum inhibitory concentration (Neurospora crassa; 48 h) [µM] | Minimum inhibitory concentration (Neurospora crassa; Neurospora crassa, ½ PDB, 10,000 spores per ml, 48 hours at 29° C.) [µg/mL]
1 | CCCCCCCCCCCCCCCC[n+]1ccccc1 [cetylpyridinium chloride] | 100 | – | – | – | – | – | – | – | – | – | – | – | – | –
2 | H-YLVFKAVY-NH2 [Peptide L (control), H-Tyr-Leu-Val-Phe-Lys-Ala-Val-Tyr-NH2] | – | 2.6 | 3.8 | 2.6 | 3.8 | 82 | 121 | 2.6 | 3.8 | >121 | 82 | 121 | 20 | 30
